From US20160122342A1, “ENHANCER OF ZESTE HOMOLOG 2 INHIBITORS” (GLAXOSMITHKLINE INTELLECTUAL PROPERTY (NO.2) LIMITED, priority 2013, published 2016)

biological target: T1, EZH2 within the PRC2 complex (Homo sapiens, UniProt Q15910); assay: Assay Protocol 2: EZH2 methyltransferase scintillation proximity assay, biotinylated histone H3 peptide substrate; type: biochemical; settings: SPA, 3H-SAM, biotinylated unmethylated histone H3K27 peptide substrate, 5-member PRC2 complex
T1 construct: FLAG; made in house; host or cells: Sf9 cells
T1 sequence (Q15910 whole entry): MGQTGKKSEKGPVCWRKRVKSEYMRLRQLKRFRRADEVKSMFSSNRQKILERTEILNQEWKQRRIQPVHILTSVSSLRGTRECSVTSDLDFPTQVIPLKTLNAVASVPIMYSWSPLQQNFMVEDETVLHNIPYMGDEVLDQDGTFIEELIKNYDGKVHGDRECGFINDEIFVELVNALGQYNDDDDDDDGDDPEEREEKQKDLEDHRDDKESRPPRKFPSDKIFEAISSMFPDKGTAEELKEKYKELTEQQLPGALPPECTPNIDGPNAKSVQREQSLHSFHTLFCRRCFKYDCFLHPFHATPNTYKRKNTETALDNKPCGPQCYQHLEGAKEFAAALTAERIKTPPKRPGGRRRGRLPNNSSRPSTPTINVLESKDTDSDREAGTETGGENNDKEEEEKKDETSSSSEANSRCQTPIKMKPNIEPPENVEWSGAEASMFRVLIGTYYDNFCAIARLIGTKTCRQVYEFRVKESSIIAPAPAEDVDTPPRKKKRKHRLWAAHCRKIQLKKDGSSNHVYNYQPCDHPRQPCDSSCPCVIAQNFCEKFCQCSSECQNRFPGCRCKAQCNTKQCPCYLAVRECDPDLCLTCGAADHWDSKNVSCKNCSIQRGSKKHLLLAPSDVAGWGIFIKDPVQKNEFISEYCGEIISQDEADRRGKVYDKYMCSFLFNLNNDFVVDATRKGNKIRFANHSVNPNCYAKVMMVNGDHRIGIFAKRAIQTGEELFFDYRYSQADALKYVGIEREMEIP
T1 sequence (O75530 whole entry partner): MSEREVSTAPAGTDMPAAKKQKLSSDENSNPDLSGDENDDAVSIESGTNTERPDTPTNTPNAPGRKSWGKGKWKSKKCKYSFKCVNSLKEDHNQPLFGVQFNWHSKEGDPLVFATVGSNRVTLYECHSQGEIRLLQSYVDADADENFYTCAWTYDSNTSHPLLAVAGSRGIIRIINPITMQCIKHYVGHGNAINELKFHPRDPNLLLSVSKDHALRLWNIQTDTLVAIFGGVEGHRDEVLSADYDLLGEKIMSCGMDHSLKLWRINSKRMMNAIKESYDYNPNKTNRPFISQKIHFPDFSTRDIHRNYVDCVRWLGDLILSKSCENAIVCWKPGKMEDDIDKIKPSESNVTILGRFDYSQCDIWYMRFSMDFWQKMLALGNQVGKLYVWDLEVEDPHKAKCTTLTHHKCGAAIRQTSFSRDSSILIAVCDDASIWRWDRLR
T1 sequence (Q15022 whole entry partner): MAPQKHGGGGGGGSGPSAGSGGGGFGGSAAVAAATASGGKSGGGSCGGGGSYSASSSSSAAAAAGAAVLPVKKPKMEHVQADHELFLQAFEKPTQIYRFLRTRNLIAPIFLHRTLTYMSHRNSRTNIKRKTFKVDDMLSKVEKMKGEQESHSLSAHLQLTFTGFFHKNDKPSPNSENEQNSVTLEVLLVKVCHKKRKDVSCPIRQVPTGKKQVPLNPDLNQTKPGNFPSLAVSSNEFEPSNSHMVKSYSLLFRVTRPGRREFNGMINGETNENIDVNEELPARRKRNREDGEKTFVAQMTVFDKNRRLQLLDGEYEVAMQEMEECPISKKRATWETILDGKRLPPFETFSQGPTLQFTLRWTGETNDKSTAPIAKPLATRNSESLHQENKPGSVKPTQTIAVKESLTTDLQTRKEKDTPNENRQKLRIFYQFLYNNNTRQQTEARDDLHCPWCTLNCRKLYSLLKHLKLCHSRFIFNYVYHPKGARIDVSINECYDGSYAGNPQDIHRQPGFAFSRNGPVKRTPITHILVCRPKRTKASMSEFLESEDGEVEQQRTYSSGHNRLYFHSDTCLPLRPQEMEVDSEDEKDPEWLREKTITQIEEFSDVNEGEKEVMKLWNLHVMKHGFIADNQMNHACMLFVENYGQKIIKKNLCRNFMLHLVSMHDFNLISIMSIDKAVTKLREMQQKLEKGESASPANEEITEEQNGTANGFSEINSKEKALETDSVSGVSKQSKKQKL
T1 sequence (Q09028 whole entry partner): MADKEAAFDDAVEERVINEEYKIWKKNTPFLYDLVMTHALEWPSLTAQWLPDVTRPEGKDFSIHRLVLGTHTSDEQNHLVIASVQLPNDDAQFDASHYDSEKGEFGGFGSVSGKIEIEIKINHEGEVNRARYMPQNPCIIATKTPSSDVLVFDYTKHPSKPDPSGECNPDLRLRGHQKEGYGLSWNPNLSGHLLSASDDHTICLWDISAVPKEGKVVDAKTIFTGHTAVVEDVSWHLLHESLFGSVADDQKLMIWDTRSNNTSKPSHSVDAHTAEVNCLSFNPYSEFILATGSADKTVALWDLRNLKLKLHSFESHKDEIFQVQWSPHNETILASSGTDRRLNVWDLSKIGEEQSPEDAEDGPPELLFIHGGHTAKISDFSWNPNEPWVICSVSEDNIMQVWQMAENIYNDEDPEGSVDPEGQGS
T1 sequence (Q6ZN18 whole entry partner): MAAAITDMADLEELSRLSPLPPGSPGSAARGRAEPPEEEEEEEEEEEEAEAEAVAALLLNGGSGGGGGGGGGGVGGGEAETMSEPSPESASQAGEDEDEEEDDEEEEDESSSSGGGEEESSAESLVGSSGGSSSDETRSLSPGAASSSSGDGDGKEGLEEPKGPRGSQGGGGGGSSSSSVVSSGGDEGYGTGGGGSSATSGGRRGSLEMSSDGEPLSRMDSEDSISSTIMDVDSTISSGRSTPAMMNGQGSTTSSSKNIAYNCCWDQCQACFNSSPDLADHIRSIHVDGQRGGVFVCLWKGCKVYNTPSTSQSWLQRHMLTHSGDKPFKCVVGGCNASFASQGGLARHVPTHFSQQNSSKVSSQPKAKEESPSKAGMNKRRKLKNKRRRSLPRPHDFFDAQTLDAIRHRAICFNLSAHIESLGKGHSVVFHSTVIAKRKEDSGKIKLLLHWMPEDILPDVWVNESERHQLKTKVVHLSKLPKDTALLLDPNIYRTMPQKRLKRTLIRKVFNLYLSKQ
Protocol: Compounds contained herein were evaluated for their ability to inhibit the methyltransferase activity of EZH2 within the PRC2 complex. […] The peptides were captured on streptavidin-coated SPA beads and the resulting signal was read on a ViewLux plate reader. • 4. Prepare 10 mM stock of compounds from solid in 100% DMSO. • 5. […] Dispense 10 nL of compound from the dilution plate into reaction plates (Corning, 384-well polystyrene NBS, Cat#3673). Prepare the following solutions: • 7. 1× Base Buffer, 50 mM Tris-HCl, pH 8, 2 mM MgCl2: Per 1 L of base buffer, combine 1 M Tris-HCl, pH 8 (50 mL), 1 M MgCl2 (2 mL), and distilled water (948 mL). • 8. 1× Assay Buffer: Per 10 mL of 1× Assay Buffer, combine 1× Base Buffer (9.96 mL), 1 M DTT (40 uL), and 10% Tween-20 (1 uL) to provide a final concentration of 50 mM Tris-HCl, pH 8, 2 mM MgCl2, 4 mM DTT, 0.001% Tween-20. • 9. 2× Enzyme Solution: […] SPA Bead Solution: Per 1 mL of SPA Bead Solution, combine Streptavidin coated SPA beads (PerkinElmer, Cat# RPNQ0261, 40 mg) and 1× Assay Buffer (1 mL) to provide a working concentration of 40 mg/mL. • 11. 2× Substrate Solution: Per 10 mL of 2× Substrate Solution, combine 40 mg/mL SPA Bead Solution (375 uL), 1 mM biotinylated histone H3K27 peptide (200 uL), 12.5 uM 3H-SAM (240 uL; 1 mCi/mL), 1 mM cold SAM (57 uL), and 1× Assay Buffer (9.13 mL) to provide a final concentration of 0.75 mg/mL SPA Bead Solution, 10 uM biotinylated histone H3K27 peptide, 0.15 uM 3H-SAM (˜12 uCi/mL 3H-SAM), and 2.85 uM cold SAM. • 12. 2.67× Quench Solution: Per 10 mL of 2.67× Quench Solution, combine 1× Assay Buffer (9.73 mL) and 10 mM cold SAM (267 uL) to provide a final concentration of 100 uM cold SAM. • 3. […] Dispense 5 uL/well of 1× Assay Buffer to column 18 (low control reactions). • 11. Dispense 5 uL/well of 2× Substrate Solution to columns 1-24 (note: substrate solution should be mixed to ensure homogeneous bead suspension before dispensing into matrix reservoir). • 12. Dispense 5 uL/well of 2× Enzyme Solution to columns 1-17, 19-24. • 13. Incubate the reaction for 60 min at room temperature. • 5. Dispense 6 uL/well of the 2.67× Quench Solution to columns 1-24. • 6. Seal assay plates and spin for ˜1 min at 500 rpm. • 7. Dark adapt plates in the ViewLux instrument for 15-60 min. • 2. Read the assay plates on the Viewlux Plate Reader utilizing the 613 nm emission filter or clear filter (300 s exposure). Reagent addition can be done manually or with automated liquid handler. Percent inhibition was calculated relative to the DMSO control for each compound concentration and the resulting values were fit using standard IC50 fitting parameters within the ABASE data fitting software package.

With `CCN1CCC(N(CC)c2cccc3c2C/C=C/CCc2cc(C)[nH]c(=O)c2CNC3=O)CC1` [Example 44, (E)-10-(ethyl(1-ethylpiperidin-4-yl)amino)-3-methyl-5,6,15,16-tetrahydrobenzo[c]pyrido[4,3-j][1]azacyclododecine-1,14(2H,9H)-dione] as the compound, how does the IC50 read?
Its IC50 is 79 nM.

Which IC50 does the source give for `CCN(c1cccc2c1C/C=C/CCc1cc(C)[nH]c(=O)c1CNC2=O)C1CCN(Cc2ccn(C)n2)CC1` [Example 45] here?
Its IC50 is 50 nM.

How did the IC50 turn out when `CCOC(=O)C(C)(C)N1CCC(N(CC)c2cccc3c2C/C=C/CCc2cc(C)[nH]c(=O)c2CNC3=O)CC1` [Example 46, (E)-ethyl 2-(4-(ethyl(3-methyl-1,14-dioxo-1,2,5,6,9,14,15,16-octahydrobenzo[c]pyrido[4,3-j][1]azacyclododecin-10-yl)amino)piperidin-1-yl)-2-methylpropanoate] was run?
The IC50 was 251 nM.

With `CCN(c1cccc2c1C/C=C/CCc1cc(C)[nH]c(=O)c1CNC2=O)C1CCN(CC(F)(F)F)CC1` [Example 47, (E)-10-(ethyl(1-(2,2,2-trifluoroethyl)piperidin-4-yl)amino)-3-methyl-5,6,15,16-tetrahydrobenzo[c]pyrido[4,3-j][1]azacyclododecine-1,14(2H,9H)-dione] as the compound, how does the IC50 read?
Its IC50 is 200 nM.

`CCN(c1cccc2c1C/C=C/CCc1cc(C)[nH]c(=O)c1CNC2=O)C1CCN(Cc2cccc(C)n2)CC1` [Example 48, (E)-10-(ethyl(1-((6-methylpyridin-2-yl)methyl)piperidin-4-yl)amino)-3-methyl-5,6,15,16-tetrahydrobenzo[c]pyrido[4,3-j][1]azacyclododecine-1,14(2H,9H)-dione] was tested. Which IC50 did it give?
The IC50 was 316 nM.

`CCN(CC)[C@H]1CC[C@H](N(CC)c2cccc3c2C/C=C/CCc2cc(C)[nH]c(=O)c2CNC3=O)CC1` [Example 49, (E)-10-((trans-4-(diethylamino)cyclohexyl)(ethyl)amino)-3-methyl-5,6,15,16-tetrahydrobenzo[c]pyrido[4,3-j][1]azacyclododecine-1,14(2H,9H)-dione] was tested. Which IC50 did it give?
Its IC50 is 158 nM.

For `CCN(c1cccc2c1C/C=C/CCc1cc(C)[nH]c(=O)c1CNC2=O)[C@H]1CC[C@H](N2CCOCC2)CC1` [Example 50, (E)-10-(ethyl(trans-4-morpholinocyclohexyl)amino)-3-methyl-5,6,15,16-tetrahydrobenzo[c]pyrido[4,3-j][1]azacyclododecine-1,14(2H,9H)-dione], which IC50 is on record?
Its IC50 is 126 nM.

Which IC50 does the source give for `CCN(c1cccc2c1C/C=C/CCCc1cc(C)[nH]c(=O)c1CNC2=O)[C@H]1CC[C@H](N(C)C)CC1` [Example 53, (E)-11-((trans-4-(dimethylamino)cyclohexyl)(ethyl)amino)-3-methyl-5,6,7,10,16,17-hexahydro-1H-benzo[c]pyrido[4,3-k][1]azacyclotridecine-1,15(2H)-dione] here?
The IC50 was 79 nM.

With `CCN(c1cccc2c1C/C=C/CCc1cc(C)[nH]c(=O)c1CNC2=O)[C@H]1CC[C@@H](N(C)C)CC1` [Example 55, (E)-10-((cis-4-(dimethylamino)cyclohexyl)(ethyl)amino)-3-methyl-5,6,15,16-tetrahydrobenzo[c]pyrido[4,3-j][1]azacyclododecine-1,14(2H,9H)-dione] as the compound, how does the IC50 read?
The IC50 was 251 nM.

How did the IC50 turn out when `CCN(c1cccc2c1C/C=C/CCc1cc(C)[nH]c(=O)c1CNC2=O)[C@H]1CC[C@H](NCC(F)F)CC1` [Example 56, (E)-10-((trans-4-((2,2-difluoroethyl)amino)cyclohexyl)(ethyl)amino)-3-methyl-5,6,15,16-tetrahydrobenzo[c]pyrido[4,3-j][1]azacyclododecine-1,14(2H,9H)-dione] was run?
Its IC50 is 126 nM.

Which IC50 does the source give for `CCN(c1cccc2c1C/C=C/CCc1cc(C)[nH]c(=O)c1CNC2=O)[C@H]1CC[C@H](N(C)CC(F)F)CC1` [Example 57, (E)-10-((trans-4-((2,2-difluoroethyl)(methyl)amino)cyclohexyl)(ethyl)amino)-3-methyl-5,6,15,16-tetrahydrobenzo[c]pyrido[4,3-j][1]azacyclododecine-1,14(2H,9H)-dione] here?
Its IC50 is 100 nM.

`CCN(c1cccc2c1C/C=C/CCc1cc(C)[nH]c(=O)c1CNC2=O)[C@H]1CC[C@H](NCC(F)(F)F)CC1` [Example 58, (E)-10-(ethyl(trans-4-((2,2,2-trifluoroethyl)amino)cyclohexyl)amino)-3-methyl-5,6,15,16-tetrahydrobenzo[c]pyrido[4,3-j][1]azacyclododecine-1,14(2H,9H)-dione] was tested. Which IC50 did it give?
Its IC50 is 158 nM.

With `CCN(c1cccc2c1C/C=C/CCc1cc(C)[nH]c(=O)c1CNC2=O)[C@H]1CC[C@H](N(C)CC(F)(F)F)CC1` [Example 59, (E)-10-(ethyl(trans-4-(methyl(2,2,2-trifluoroethyl)amino)cyclohexyl)amino)-3-methyl-5,6,15,16-tetrahydrobenzo[c]pyrido[4,3-j][1]azacyclododecine-1,14(2H,9H)-dione] as the compound, how does the IC50 read?
Its IC50 is 316 nM.

How did the IC50 turn out when `CCN(c1cccc2c1C/C=C/CCc1cc(C)[nH]c(=O)c1CNC2=O)[C@H]1CC[C@H](N2CCC2)CC1` [Example 60, (E)-10-((trans-4-(azetidin-1-yl)cyclohexyl)(ethyl)amino)-3-methyl-5,6,15,16-tetrahydrobenzo[c]pyrido[4,3-j][1]azacyclododecine-1,14(2H,9H)-dione] was run?
Its IC50 is 1260 nM.

With `CCN(c1cccc2c1C/C=C\Cc1cc(C)[nH]c(=O)c1CNC2=O)[C@H]1CC[C@H](N(C)C)CC1` [Example 61, (Z)-9-((trans-4-(dimethylamino)cyclohexyl)(ethyl)amino)-3-methyl-5,8,14,15-tetrahydro-1H-benzo[c]pyrido[4,3-i][1]azacycloundecine-1,13(2H)-dione] as the compound, how does the IC50 read?
The IC50 was 158 nM.

How did the IC50 turn out when `CCN(c1cccc2c1CCCCc1cc(C)[nH]c(=O)c1CNC2=O)[C@H]1CC[C@H](N(C)C)CC1` [Example 62, 9-((trans-4-(dimethylamino)cyclohexyl)(ethyl)amino)-3-methyl-5,6,7,8,14,15-hexahydro-1H-benzo[c]pyrido[4,3-i][1]azacycloundecine-1,13(2H)-dione] was run?
The IC50 was 251 nM.

For `CCN(c1nccc2c1C/C=C/CCc1cc(C)[nH]c(=O)c1CNC2=O)C1CCOCC1` [Example 63, (E)-10-(ethyl(tetrahydro-2H-pyran-4-yl)amino)-3-methyl-5,6,15,16-tetrahydrodipyrido[3,4-c:3′,4′-j][1]azacyclododecine-1,14(2H,9H)-dione], which IC50 is on record?
The IC50 was 251 nM.

Which IC50 does the source give for `Cc1cc2c(c(=O)[nH]1)CNC(=O)c1cccc(N(CCO)C3CCOCC3)c1C/C=C/CC2` [Example 64, (E)-10-((2-hydroxyethyl)(tetrahydro-2H-pyran-4-yl)amino)-3-methyl-5,6,15,16-tetrahydrobenzo[c]pyrido[4,3-j][1]azacyclododecine-1,14(2H,9H)-dione] here?
The IC50 was 251 nM.

With `CCN(c1cccc2c1C/C=C/CCc1cc(C)[nH]c(=O)c1CNC2=O)C1CCN(N(C)C)CC1` [Example 65, (E)-10-((1-(dimethylamino)piperidin-4-yl)(ethyl)amino)-3-methyl-5,6,15,16-tetrahydrobenzo[c]pyrido[4,3-j][1]azacyclododecine-1,14(2H,9H)-dione] as the compound, how does the IC50 read?
Its IC50 is 316 nM.

Which IC50 does the source give for `CCN(c1cccc2c1C/C=C/CCc1cc(C)[nH]c(=O)c1CNC2=O)C1CCC2(CC1)CNC2` [Example 66, (E)-10-(ethyl(2-azaspiro[3.5]nonan-7-yl)amino)-3-methyl-5,6,15,16-tetrahydrobenzo[c]pyrido[4,3-j][1]azacyclododecine-1,14(2H,9H)-dione] here?
Its IC50 is 251 nM.

For `CCN(c1cccc2c1C/C=C/CCc1cc(C)[nH]c(=O)c1CNC2=O)C1CCC2(CC1)CN(C)C2` [Example 67, (E)-10-(ethyl(2-methyl-2-azaspiro[3.5]nonan-7-yl)amino)-3-methyl-5,6,15,16-tetrahydrobenzo[c]pyrido[4,3-j][1]azacyclododecine-1,14(2H,9H)-dione], which IC50 is on record?
Its IC50 is 100 nM.

`CCN(c1cccc2c1C/C=C/CCc1cc(C)[nH]c(=O)c1CNC2=O)C1CC2(CCNCC2)C1` [Example 68, (E)-10-(ethyl(7-azaspiro[3.5]nonan-2-yl)amino)-3-methyl-5,6,15,16-tetrahydrobenzo[c]pyrido[4,3-j][1]azacyclododecine-1,14(2H,9H)-dione] was tested. Which IC50 did it give?
Its IC50 is 126 nM.
